Measured values reported in patent publication US6344456B1, “Piperazinone derivatives and their uses” (Laboratoire L. Lafon, priority 1998, dated 2002).
Where a name gives a salt, the structure may show the parent alone. Read-outs that look alike come from different tables or passages of the source.

What was measured:
[1] = tested on: Guinea Pig Platelets; assay: In vitro inhibition of collagen-induced platelet aggregation, guinea pig platelet-rich plasma; type: cell-based; details: guinea pig PRP, collagen 1 μg/ml, 3 minutes of contact at 37° C.
Description: (§1) A study of the inhibitory activity of the compounds of formula I on platelet aggregation was carried out in vitro, i.e. by direct contact of solutions of variable concentrations of the compounds with platelets freshly separated from a sample of whole blood, taken under standardized conditions, from laboratory animals (guinea pigs) and from healthy human subjects who have not received any substances or drugs that might interfere with blood clotting. The anti-platelet-aggregating activity was also studied ex vivo/vitro, i.e. after administration of the substances claimed in guinea pigs to measure the intensity and duration of the anti-aggregating action induced by the fraction of the test product absorbed and circulating in the blood.
1.1. Studies on Guinea Pig Platelets
Blood is taken by intracardiac puncture from male Dunkin-Hartley guinea pigs (weighing about 330 g), at a rate of 4.5 ml per 0.5 ml of trisodium citrate (concentration of the aqueous solution: 1.55%) in order to prevent all trace of clotting. The platelet-rich plasma (PRP) is obtained by centrifuging the tubes of whole blood for 15 minutes at 150 g.
The PRPs are collected as. “pools”. The platelets contained in these pools are counted using a Coulter ZM haematology automatic device: if necessary, a dilution is carried out in order for the platelet concentration in the plasma to be between 200,000 and 400,000 platelets/mm^3. Simultaneously, other samples of these pools serve to prepare the platelet-poor plasma (PPP) by centrifugation at 1,500 g for 15 minutes.
The kinetic study of the platelet aggregation is carried out by adding a collagen solution (1 μg/ml) to a volume of PRP, using a Chrono-log Corporation aggregometer (490-D1 or 560 VS) which uses an optical detection of the appearance of the thrombus.
The measurements of the aggregation inhibition are carried out after 3 minutes of contact at 37° C. with agitation.

[2] = tested on: platelet aggregation induced by collagen; assay: Ex vivo/vitro anti-platelet-aggregating activity in guinea pigs after gastric administration; set-up: species or system guinea pig; details: for % of g.r. inhibition guinea pig ex vivo d = 150 mg/kg −1 h: administered 1 h before blood is taken; for % of g.r. inhibition guinea pig ex vivo d = 150 mg/kg −2 h: administered 2 h before blood is taken; for anti-aggregating action ex-vivo in guinea pigs, oral dose 10 mg/kg, 1h: administered 1h before the aggregation test
Description: as §1
2. ex vivo/vitro Pharmacological Study in Guinea Pigs
Evaluation of the anti-platelet-aggregating activity of the compounds is carried out in the same guinea pigs as those mentioned above (Dunkin-Hartley strain). The administration of each product in a range of doses from 150 mg/kg to 10 mg/kg and of each vehicle (5 ml/kg) is carried out via the gastric route (g.r.) 1h or 2h or 4h or 6h or 8h or 12h before blood is taken from the guinea pigs fasted the day before. The allocation of the treatments to the animals is random.
The blood is taken and then treated under the same conditions as those described above for the in vitro studies.
The results of the inhibition of the platelet aggregation obtained for each test concentration make it possible to calculate the IC50 concentration of each test product and the kinetics of the inhibitory effect and its duration of action.

[3] = tested on: Human Platelets; assay: In vitro inhibition of collagen-induced platelet aggregation, human platelet-rich plasma; type: cell-based; details: human PRP, collagen 5 μg/ml, 3 minutes of contact at 37° C., read-out: IC50 (M) in vitro Man
Description: A study of the inhibitory activity of the compounds of formula I on platelet aggregation was carried out in vitro, i.e. by direct contact of solutions of variable concentrations of the compounds with platelets freshly separated from a sample of whole blood, taken under standardized conditions, from laboratory animals (guinea pigs) and from healthy human subjects who have not received any substances or drugs that might interfere with blood clotting. The anti-platelet-aggregating activity was also studied ex vivo/vitro, i.e. after administration of the substances claimed in guinea pigs to measure the intensity and duration of the anti-aggregating action induced by the fraction of the test product absorbed and circulating in the blood. 1.2 Study on Human Platelets Venous blood is taken from a group of ten healthy human subjects of the same age, by puncture into a vein of the fold of the elbow and is collected in a glass tube containing aqueous 0.129 M sodium citrate solution (1 volume of citrate solution per 9 volumes of blood). Each tube is then centrifuged a first time at 20° C. and 100 g for 15 minutes in order to obtain the platelet-rich plasma (PRP); after removing this PRP, the tube is again centrifuged at 2,000 g for 15 minutes in order this time to remove the platelet-poor plasma (PPP). For each identified sample of PRP, the platelets are counted using a Coulter ZM counter. […] A control test intended to check the possible effect of the solvents (reference value) on the platelet aggregation is introduced into each measurement series, and is measured after 3 minutes of contact at 37° C. with agitation.

[4] = Cavia porcellus, Platelet, 0.05 h

Compound | IC50 [1, 4] [µM] | % of g.r. inhibition guinea pig ex vivo d = 150 mg/kg −1 h [2] [%] | % of g.r. inhibition guinea pig ex vivo d = 150 mg/kg −2 h [2] [%] | also measured
CCOC(=O)CC(CC(C)C)NC(=O)CN1CCN(c2ccc(C(=N)N)cc2)CC1=O (centres unmarked) [Example 24, Ethyl 3-{[2-(4-{4-[amino(imino)methyl]phenyl}-2-oxopiperazino)acetyl]amino}-5-methylhexanoate acetate] | 4.6 |  |  | 
CCOC(=O)CC(NC(=O)CN1CCN(c2ccc(C(=N)N3CCOCC3)cc2)CC1=O)c1ccc2c(c1)OCO2 (centres unmarked) [Example 35, Ethyl 3-(1,3-benzodioxol-5-yl)-3-{[2-(4-{4-[imino-(morpholino)methyl]phenyl}-2-oxopiperazino)acetyl]-amino}propanoate hydrochloride] | 0.47 |  |  | 
Cl.N=C(N)c1ccc(N2CCN(CC(=O)NCCC(=O)O)CC2=O)cc1 [Example 28, 3-{[2-(4-{4-[amino(imino)methyl]phenyl}-3-oxopiperazino)acetyl]amino}propanoic acid hydrochloride] | 16 | −28 | −23 | IC50 ([3]; Platelet, 0.05 h): 1.4e-06 M
CC(=O)O.CCOC(=O)CCNC(=O)CN1CCN(c2ccc(C(=N)N)cc2)C(=O)C1 [Example 27, Ethyl 3-{[2-(4-{4-[amino(imino)methyl]phenyl}-3-oxopiperazino)acetyl]amino}propanoate acetate] | 38 | −8 | −9 | 
CC(=O)O.CCOC(=O)CC(NC(=O)CN1CCN(c2ccc(C(=N)N)cc2)CC1=O)c1ccc2c(c1)OCO2 (centres unmarked) [Example 18, Ethyl 3-{[2-(4-{4-[amino(imino)methyl]phenyl}-2-oxopiperazino)acetyl]amino}-3-(1,3-benzodioxol-5-yl)propanoate acetate] | 0.2 | −70 | −69 | IC50 ([3]; Platelet, 0.05 h): 8.1e-05 M
CC(=O)O.CCOC(=O)CCNC(=O)CN1CCN(c2ccc(C(=N)N)cc2)CC1=O [Example 16, Ethyl 3-{[2-(4-{4-[amino(imino)methyl]phenyl}-2-oxopiperazino)acetyl]amino}proanoate acetate] |  | −75 | −73 | IC50 [1]: 3.8 µM
3-{[2-(4-{4-[amino(imino)methyl]phenyl}-2-oxopiperazino)acetyl]amino}-3-(pyridyl)propanoic acid acetate [Example 21] |  | −78 | −79 | IC50 [1]: 0.16 µM; IC50 [3]: 8.6e-07 M
CCOC(=O)CC(CCc1ccccc1)NC(=O)CN1CCN(c2ccc(C(=N)N3CCCCC3)cc2)CC1=O (centres unmarked) [Example 32, Ethyl 3-{[2-(4-{4-[imino(piperidino)methyl]phenyl}-2-oxopiperazino)acetyl]amino}-5-phenylpentanoate] | 2.4 |  |  | 
Ethyl 3-{[2-(4-{4-[amino(imino)methyl]phenyl}-2-oxopiperazino)-acetyl]amino}-3-(pyridyl)propanoate acetate [Example 20] |  | −65 | −64 | IC50 [1]: 0.63 µM; IC50 [3]: 2.8e-05 M
Cl.N=C(N)c1ccc(N2CCN(CC(=O)NC(CC(=O)O)c3ccc4c(c3)OCO4)CC2=O)cc1 (centres unmarked) [Example 30, 3-{[2-(4-{4-[amino(imino)methyl]phenyl}-3-oxopiperazino)acetyl]amino}-3-(1,3-benzodioxol-5-yl)propanoic acid hydrochloride] | 15 | −14 | −17 | IC50 ([3]; Platelet, 0.05 h): 1.2e-06 M
CCOC(=O)CC(NC(=O)CN1CCN(c2ccc(C(=N)N)cc2)CC1=O)C(C)C (centres unmarked) [Example 26, Ethyl 3-{[2-(4-{4-[amino(imino)methyl]phenyl}-2-oxopiperazino)acetyl]amino}-4-methylpentanoate acetate] | 4.5 |  |  | 
CCOC(=O)CC(CCc1ccccc1)NC(=O)CN1CCN(c2ccc(C(=N)N)cc2)CC1=O (centres unmarked) [Example 22, Ethyl 3-{[2-(4-{4-[amino(imino)methyl]phenyl}-2-oxopiperazino)acetyl]amino}-5-phenylpentanoate acetate] | 0.51 |  |  | IC50 ([3]; Platelet, 0.05 h): 7.1e-05 M
CCOC(=O)CC(CCc1ccccc1)NC(=O)CN1CCN(c2ccc(C(=N)N3CCOCC3)cc2)CC1=O (centres unmarked) [Example 33, Ethyl 3-{[2-{4-{4-[imino(morpholino)methyl]phenyl}-2-oxopiperazino)acetyl]amino)-5-phenylpentanoate] | 0.65 |  |  | 
CCOC(=O)CC(NC(=O)CN1CCN(c2ccc(C(N)=NO)cc2)CC1=O)c1ccc2c(c1)OCO2 (centres unmarked) [Example 3, Ethyl 3-{[2-(4-{4-[amino(hydroxyimino)methyl]phenyl}-2-oxopiperazino)acetyl]amino}-3-(1,3-benzodioxol-5-yl)propanoate] |  | −72 | −69 | anti-aggregating action ex-vivo in guinea pigs, oral dose 10 mg/kg, 1h ([2]; 10 mg/kg): 69%; anti-aggregating action ex-vivo in guinea pigs, oral dose 10 mg/kg, 2h ([2]; 10 mg/kg, administered 2h before the aggregation test): 72%
Ethyl 3-{[2-(4-{4-[amino(hydroxyimino)methyl]phenyl}-2-oxopiperazino)acetyl]amino}-3-(pyridyl)propanoate [Example 5] |  | −72 | −75 | IC50 [1]: 100 µM
CCOC(=O)CC(NC(=O)CN1CCN(c2ccc(C(=N)N)cc2)CC1=O)C(C)(C)C (centres unmarked) [Example 25, Ethyl 3-{[2-(4-{4-[amino(imino)methyl]phenyl}-2-oxopiperazino)acetyl]amino}-4,4-dimethylpentanoate acetate] | 440 |  |  | 
CCOC(=O)CC(NC(=O)CN1CCN(c2ccc(C(=N)N)cc2)CC1=O)C1CCCCC1 (centres unmarked) [Example 23, Ethyl 3-{[2-(4-{4-[amino(imino)methyl]phenyl}-2-oxopiperazino)acetyl]amino}-3-cyclohexylpropanoate acetate] | 46 |  |  | 
CCOC(=O)CC(NC(=O)CN1CCN(c2ccc(C(=N)N3CCCCC3)cc2)CC1=O)c1ccc2c(c1)OCO2 (centres unmarked) [Example 34, Ethyl 3-(1,3-benzodioxol-5-yl)-3-{[2-(4-{4-[imino(piperidino)methyl]phenyl}-2-oxopiperazino)-acetyl]amino}propanoate hydrochloride] | 0.99 |  |  | 
CCOC(=O)CC(CCc1ccccc1)NC(=O)CN1CCN(c2ccc(C(N)=NO)cc2)CC1=O (centres unmarked) [Example 7, Ethyl 3-{[2-(4-{4-[amino(hydroxyimino)methyl]phenyl}-2-oxopiperazino)acetyl]amino}-5-phenylpentanoate] |  |  |  | anti-aggregating action ex-vivo in guinea pigs, oral dose 10 mg/kg, 1h ([2]; 10 mg/kg): 72%
CCOC(=O)CCNC(=O)CN1CCN(c2ccc(C(N)=NO)cc2)CC1=O [Example 1, Ethyl 3-{[12-(4-{4-[amino(hydroxyimino)methyl]phenyl}-2-oxopiperazino)acetyl]amino}propanoate] |  | −72 | −73 | IC50 [1]: > 1000 µM
